Entries after “also recorded” stand apart in the source; their conditions may differ.
Assays:
[1] = target: T1, Human LPL (Homo sapiens, UniProt P06858); experiment: Cellular lipolysis assay, Angptl4 protection, CHO pgsA-745/GPIHBP1 cells; assay type: cell-based; conditions: 30 μM, 10 μM, 3 μM, 1 M and 0.3 μM doses, compared to 50 nM LPL with 30 nM Angptl4
T1 construct: purchased R&D Systems; host or cells: LPL added from outside to CHO pgsA-745 cells stably transfected with human GPIHBP1-HA
T1 sequence (P06858 28-475): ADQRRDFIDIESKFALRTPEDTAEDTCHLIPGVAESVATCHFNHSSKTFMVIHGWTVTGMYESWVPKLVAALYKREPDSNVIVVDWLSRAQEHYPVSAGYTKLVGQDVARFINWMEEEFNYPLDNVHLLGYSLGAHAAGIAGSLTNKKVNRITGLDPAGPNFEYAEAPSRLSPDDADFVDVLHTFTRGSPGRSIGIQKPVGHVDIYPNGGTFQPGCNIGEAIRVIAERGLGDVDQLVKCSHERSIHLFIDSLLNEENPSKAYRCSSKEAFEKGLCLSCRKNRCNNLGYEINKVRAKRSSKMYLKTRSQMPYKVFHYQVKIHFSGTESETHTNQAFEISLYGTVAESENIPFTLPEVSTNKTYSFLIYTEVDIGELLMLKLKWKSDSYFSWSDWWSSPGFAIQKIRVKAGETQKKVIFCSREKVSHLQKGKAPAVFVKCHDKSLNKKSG
T1 sequence (Q8IV16 21-151 partner limits assumed): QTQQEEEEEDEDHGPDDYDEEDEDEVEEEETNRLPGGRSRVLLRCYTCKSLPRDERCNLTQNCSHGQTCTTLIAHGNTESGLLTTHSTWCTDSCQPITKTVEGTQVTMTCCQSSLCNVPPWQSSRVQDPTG
Description: (§1) Chinese hamster ovary (CHO) mutant pgsA-745 cells were grown in F-12K media (ATCC) with 10% FBS and penicillin/streptomycin. One day prior to transfection 300,000 cells were seeded per well in a 6 well plate and cultured overnight. 2 μg of human GPIHBPI in pcDNA3.1(+)—C-HA (Genscript) were transfected using Lipofectamine 3000 (Invitrogen) and the cells were cultured for 24 hours. Cells were split into selection media (600 μg/ml G418 (Gibco)) and a stable pool was established and verified by qPCR and western blotting using anti-HA (Cell Signaling) and GPIHBP1 (Santa Cruz) antibodies (data not shown).
(§2) CHO pgsA-745 cells overexpressing GPIHBPI were seeded at 200,000 cells per well in 24 well plates and cultured overnight. Media was replaced with serum-free F-12K media containing 0.1 U/ml heparin and cultured for 2 hours to remove surface bound endogenous LPL, then cells were washed with PBS. Human LPL (R&D Systems) was diluted to 50 nM in serum free media and added for 30 minutes gently shaking at room temperature, then cells were washed with PBS to remove unbound LPL. Test compounds were diluted in serum free media and added to cells for 20 minutes at room temperature gently shaking, followed by 10× ANGPTL4 (30 nM final concentration) for another 20 minutes. Test compound and ANGPTL4 were removed and cells washed with PBS. […] Media was removed and fluorescence read at Ex482/Em515.

[2] = target: T1, Human LPL; experiment: Cellular lipolysis assay, intrinsic activation (Angptl4 omitted), CHO pgsA-745/GPIHBP1 cells; assay type: cell-based; conditions: 30 μM, 10 PM, 3 μM and 1 μM doses, compared to 50 nM LPL alone
Description: as §1
as §2, with “Test compounds were diluted in serum free media and added to cells for 20 minutes at room temperature gently shaking, followed by 10× ANGPTL4 (30 nM final concentration) for another 20 minutes.” left out

[3] = system: C57BL/6 mice; experiment: Oral fat tolerance test (postprandial triglyceridaemia after olive oil bolus); assay type: in vivo; conditions: overnight-fasted C57BL/6 mice, compound IP 1 h before 10 mL/kg olive oil, bled at 1, 2 and 3.5 h
Description: To examine to effects of test compounds on postprandial triglycerdemia, 5-7 week old C57BL/6 mice were fasted overnight (18 hours) on non-nutritive bedding (Alpha-Dri). Following the overnight fast, the mice are bled via retro-orbital sinus (25 μL) using microcapillaries (t-1 hr sample). The LPL activator test compound was then administered intraperitoneally (IP) in a dose volume of 10 ml/kg. One hour later the mice were bled for the t=0 timepoint. The mice were then immediately dosed with a 10 mL/kg oral bolus of olive oil. The mice were subsequently bled at 1-, 2-, and 3.5-hours post-olive oil administration.
Whole blood samples were collected into tubes containing 0.125% EDTA solution in saline. Diluted plasma samples were analyzed for triglyceride levels using Infinity Triglyceride reagent (Thermo) on a microtiter plate. Briefly, 10 μL of diluted sample was added the plate. 200 μL of the reagent was added and the plate was incubated for 10 minutes at 37° C. The plate was then read at 550 nm on a Molecular Devices M5 Spectrophotometer (San Jose, CA). The concentration of triglycerides in the sample was determined using a standard curve made using a dilution of triglyceride standard (Sigma-Aldrich, St. Louis, MO) using the Softmax software from Molecular Devices. All graphing and subsequent area under-the-curve and statistical analysis (Student's t Test) is performed using GraphPad Prism (version 8.0, GraphPad Software, Inc., San Diego, CA).

In the case of `O=C(O)Cc1cc(F)ccc1NC(=O)c1ccc(N2CCCCC2)c(NC(=O)c2nn(CC(F)(F)F)c3ccccc23)c1` [Compound 158, 2-(5-fluoro-2-(4-(piperidin-1-yl)-3-(1-(2,2,2-trifluoroethyl)-1H-indazole-3-carboxamido)benzamido)phenyl)acetic acid], the “lipolysis activity (EnzChek substrate fluorescence), protection of LPL from inactivation by ANGPTL4” value [1] is reported as “protective action; also recorded: significantly increased lipolysis activity”, the “lipolysis activity (EnzChek substrate fluorescence), intrinsic activation of LPL” value [2] is reported as “intrinsic activation; also recorded: significantly increased lipolysis activity” and the “hypertriglyceridemia response to oral olive oil gavage (plasma triglycerides)” value [3] is reported as “blunts hypertriglyceridemia response in a dose-dependent fashion”.

From patent US20250092014A1, “COMPOUNDS AND METHODS OF ACTIVATING LIPOPROTEIN LIPASE” (Metrea Biosciences, Inc., priority 2021, published 2025)
